Measurements as given in patent publication US20100063126A1, “Carbazole-Derived Pharmaceutical Compositions” (JadoLabs GmbH, priority 2004, published 2010).

Key:
RBL-2H3 cells = experiment: Degranulation assay (β-hexosaminidase release); format: cell-based, Rat
[1] = Disrafter-Liposome Raftophile Assay (D-LRA); settings: 100 μM
influenza virus = experiment: Virus budding assay (influenza assay); format: cell-based
PR8 virus = experiment: microbe, parasite or virus in culture; format: cell-based; settings: unidentified influenza virus, PR8, MDCK; for inhibition at 3.125 µM: read-out: inhibition of virus replication / infection
Wild type SV40 viruses = format: cell-based, Simian Virus 40; settings: 15CM, HeLa cells, compared to solvent control
[2] = tested on: vesicular stomatitis virus (VSV); format: cell-based; settings: HeLa cells
HIV-1 strain NL4-3 = experiment: microbe, parasite or virus in culture; format: cell-based; settings: Human immunodeficiency virus 1, NL43, HeLa TZM cells, compared to solvent, read-out: inhibition of HIV infection
[3] = Rattus norvegicus, RBL-2H3, read-out: inhibition of release of β-hexosaminidase

| Compound | inhibition in influenza virus budding assay (influenza virus) | inhibition at 3.125 µM (PR8 virus) [%] | inhibition at 10 µM (HIV-1 strain NL4-3) [%] | also measured |
| --- | --- | --- | --- | --- |
| Cc1c(C)c2c(c(C)c1O)CC[C@@](C)(CCC[C@H](C)CCC[C@H](C)CCCC(C)C)O2 [Alpha-(+)-tocopherol] | – | – | – | activity in mast cell degranulation assay (RBL-2H3 cells): moderately active |
| CC(C)=CCc1ccc2[nH]c3c(c2c1)C(=O)C(=O)C(C)=C3C[C@@H](C)O [Compound 21a] | – | – | – | disrafting activity (% disrafting) ([1]; perylene as marker): 47.2%; inhibition at 100 µM (RBL-2H3 cells; [3]): 46% |
| CCCCCCCC1=C(C)C(=O)C(=O)c2c1[nH]c1ccccc21 [Compound 21b] | inhibitory | – | – | inhibition at 25 µM (PR8 virus; read-out: inhibition of virus replication): 18.3% |
| CC1=C(Cc2ccc3[nH]c4c(c3c2)C(=O)C(=O)C(C)=C4CC(C)O)CCC(C)(C)C1 (centres unmarked) [Compound 22a] | inhibitory | 24.2 | 15 | inhibition of SV40 infection (Wild type SV40 viruses): 19%; inhibitory effect on viral infection in VSV counterscreen [2]: no inhibitory effect on viral infection at all |
| CCCCCCCC1(O)C(C)=C(OC)C(=O)c2c1[nH]c1ccccc21 (centres unmarked) [Compound 22c] | inhibitory | 60.2 | 44 | inhibition at 50 µM (RBL-2H3 cells; [3]): 12% |
| CCCCCCCc1c(C)c(OC)c(OC)c2c1[nH]c1ccccc12 [Compound 22d] | – | – | 21 | – |
| CCCCCCCc1c(C)c(O)cc2c1[nH]c1ccccc12 [Compound 23d] | – | – | 20 | disrafting activity (% disrafting) ([1]; GS-96 as marker): -97.3%; inhibition at 100 µM (RBL-2H3 cells; [3]): 15% |
| CCCCCCCc1c(C)c(OC)cc2c1[nH]c1ccccc12 [Compound 24d] | inhibitory | – | – | disrafting activity (% disrafting) ([1]; perylene as marker): -98.5%; inhibition at 100 µM (PR8 virus; read-out: inhibition of virus infection): 50.9% |
| CCCCCCCCCCCCCCCCCCOc1cc2[nH]c3cc(OC)ccc3c2cc1C [Compound 25d] | inhibitory | 18.4 | – | – |
